Assays:
[1] = target: human TRPV1 (Homo sapiens, UniProt Q8NER1); assay: FLIPR antagonism of capsaicin; type: cell-based; settings: for fold better antagonism than linear derivative 15c: Ki(CAP) versus 15c; for antagonism of capsaicin response, in words: capsaicin 100 nM; for fold more potent than the corresponding racemate: Ki(CAP), (S)-isomer versus racemate
[2] = tested on: CCI-induced cold allodynia; assay: Bennett model; type: in vivo, rat
[3] = tested on: capsaicin-induced hypothermia; assay: Inhibition of capsaicin-induced hypothermia; type: in vivo, mouse; settings: 15 min before 3 mg/kg ip capsaicin, assayed 30 min after capsaicin

Sequence of human TRPV1 (Q8NER1 whole entry): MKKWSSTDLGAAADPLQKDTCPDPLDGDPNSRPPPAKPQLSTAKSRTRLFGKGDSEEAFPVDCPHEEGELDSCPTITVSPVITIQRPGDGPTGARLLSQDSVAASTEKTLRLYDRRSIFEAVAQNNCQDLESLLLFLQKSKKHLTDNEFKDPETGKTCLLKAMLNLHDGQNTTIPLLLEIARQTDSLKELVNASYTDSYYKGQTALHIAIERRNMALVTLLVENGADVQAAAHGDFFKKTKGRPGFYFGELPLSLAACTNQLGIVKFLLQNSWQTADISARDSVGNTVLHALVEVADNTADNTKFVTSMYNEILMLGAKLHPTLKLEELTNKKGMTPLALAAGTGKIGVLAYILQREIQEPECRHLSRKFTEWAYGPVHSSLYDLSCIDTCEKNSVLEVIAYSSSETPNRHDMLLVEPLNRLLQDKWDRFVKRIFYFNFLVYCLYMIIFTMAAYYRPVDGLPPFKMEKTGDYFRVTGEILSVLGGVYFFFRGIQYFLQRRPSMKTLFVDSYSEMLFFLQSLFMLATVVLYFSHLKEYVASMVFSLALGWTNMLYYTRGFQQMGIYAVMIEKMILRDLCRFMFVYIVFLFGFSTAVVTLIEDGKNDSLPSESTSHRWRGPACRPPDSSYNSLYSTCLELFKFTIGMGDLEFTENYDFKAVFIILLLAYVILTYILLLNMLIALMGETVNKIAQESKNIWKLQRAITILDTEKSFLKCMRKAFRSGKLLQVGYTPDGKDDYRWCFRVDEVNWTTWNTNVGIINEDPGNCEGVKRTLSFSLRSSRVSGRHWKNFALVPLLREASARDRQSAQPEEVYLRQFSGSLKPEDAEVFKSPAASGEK

CC(C)CCCc1nc(C(F)(F)F)ccc1CNC(=O)C(C)c1ccc(NS(C)(=O)=O)c(F)c1 (stereo not drawn) [15d]
fold better antagonism than linear derivative 15c [1]: ca. 2 fold

CC(C(=O)NCc1ccc(C(F)(F)F)nc1CCC(C)(C)C)c1ccc(NS(C)(=O)=O)c(F)c1 (stereo not drawn) [15e]
fold better antagonism than linear derivative 15c [1]: ca. 2 fold

CC(C(=O)NCc1ccc(C(F)(F)F)nc1C1CCCCC1)c1ccc(NS(C)(=O)=O)c(F)c1 (stereo not drawn) [15f]
Bennett model, maximal possible effect ([2]; 10 mg/kg po): 60 MPE
anti-allodynic activity, max effect ([2]; at 10 mg/kg po): 60%
CAP-induced hypothermia, inhibition ([3]; 0.1 mg/kg po): 24 % inh.
CAP-induced hypothermia, inhibition ([3]; 0.3 mg/kg po): 78 % inh.
fold better antagonism than linear derivative 15c [1]: 2.5 fold

CCC1CCC(c2nc(C(F)(F)F)ccc2CNC(=O)C(C)c2ccc(NS(C)(=O)=O)c(F)c2)CC1 (stereo not drawn) [15h]
fold increase in potency compared to 15f ([1]; Ki(CAP) versus 15f): 2 fold

CC(C(=O)NCc1ccc(C(F)(F)F)nc1C1CC2CCC1C2)c1ccc(NS(C)(=O)=O)c(F)c1 (stereo not drawn) [15n]
fold less potent than monocycle 15f ([1]; Ki(CAP) versus 15f): 2.5 fold

CC(C)=Cc1nc(C(F)(F)F)ccc1CNC(=O)C(C)c1ccc(NS(C)(=O)=O)c(F)c1 (stereo not drawn) [16a]
antagonism of capsaicin response, in words [1]: moderate antagonistic activity

CCC/C=C\c1nc(C(F)(F)F)ccc1CNC(=O)C(C)c1ccc(NS(C)(=O)=O)c(F)c1 (stereo not drawn) [16c]
fold less potent than saturated derivative 15b ([1]; Ki(CAP) versus 15b): 2 fold

C[C@H](C(=O)NCc1ccc(C(F)(F)F)nc1C1CCCCC1)c1ccc(NS(C)(=O)=O)c(F)c1 [(S)-15f]
fold more potent than the corresponding racemate [1]: 2 fold

CCC1CCC(c2nc(C(F)(F)F)ccc2CNC(=O)[C@@H](C)c2ccc(NS(C)(=O)=O)c(F)c2)CC1 (stereo partly drawn) [(S)-15h]
fold more potent than the corresponding racemate [1]: ca. 2 fold

C[C@H](C(=O)NCc1ccc(C(F)(F)F)nc1C1CCC(C)(C)CC1)c1ccc(NS(C)(=O)=O)c(F)c1 [(S)-15l]
fold more potent than the corresponding racemate [1]: ca. 2 fold

C[C@H](C(=O)NCc1ccc(C(F)(F)F)nc1C1CC2CCC1C2)c1ccc(NS(C)(=O)=O)c(F)c1 (stereo partly drawn) [(S)-15n]
fold more potent than the corresponding racemate [1]: ca. 2 fold

CC1CC=C(c2nc(C(F)(F)F)ccc2CNC(=O)[C@@H](C)c2ccc(NS(C)(=O)=O)c(F)c2)CC1 (stereo partly drawn) [(S)-15p]
fold more potent than the corresponding racemate [1]: ca. 2 fold

C[C@H](C(=O)NCc1ccc(C(F)(F)F)nc1C1=CCC(C(C)(C)C)CC1)c1ccc(NS(C)(=O)=O)c(F)c1 (stereo partly drawn) [(S)-15t]
fold more potent than the corresponding racemate [1]: ca. 2 fold

C[C@H](C(=O)NCc1ccc(C(F)(F)F)nc1C1=CCC(C)(C)CC1)c1ccc(NS(C)(=O)=O)c(F)c1 [(S)-15u]
fold more potent than the corresponding racemate [1]: ca. 2 fold

CC(C(=O)NCc1ccc(C(F)(F)F)nc1Cl)c1ccc(NS(C)(=O)=O)c(F)c1 (stereo not drawn) [compound 8]
antagonism of capsaicin response, in words [1]: weak antagonists

CC(C(=O)NCc1ccc(C(F)(F)F)nc1Br)c1ccc(NS(C)(=O)=O)c(F)c1 (stereo not drawn) [compound 9]
antagonism of capsaicin response, in words [1]: weak antagonists

CC(C)C[C@H](CN)CC(=O)O [pregabalin, reference compound]
anti-allodynic activity, max effect ([2]; at 100 mg/kg): 69%

Reference: paper PMC6956567 (Bioorganic & medicinal chemistry letters, 2014)
